{"source": "patent US5239058A", "about": "“Proteins having anticoagulant properties” (Merck & Co., Inc., priority 1992, dated 1993)", "key": {"[1]": {"target": "T1, human Factor Xa (Homo sapiens, UniProt P00742)", "T1 construct": "purchased Enzyme Research Laboratories", "T1 sequence (P00742 235-488 limits assumed)": "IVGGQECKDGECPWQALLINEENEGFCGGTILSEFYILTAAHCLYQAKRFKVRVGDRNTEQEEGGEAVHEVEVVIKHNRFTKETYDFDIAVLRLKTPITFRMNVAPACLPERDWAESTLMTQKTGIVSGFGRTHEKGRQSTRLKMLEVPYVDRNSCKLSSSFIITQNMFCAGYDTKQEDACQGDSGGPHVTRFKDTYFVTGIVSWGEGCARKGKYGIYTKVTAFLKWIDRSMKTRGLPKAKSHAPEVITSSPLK", "T1 sequence (P00742 41-179 partner limits assumed)": "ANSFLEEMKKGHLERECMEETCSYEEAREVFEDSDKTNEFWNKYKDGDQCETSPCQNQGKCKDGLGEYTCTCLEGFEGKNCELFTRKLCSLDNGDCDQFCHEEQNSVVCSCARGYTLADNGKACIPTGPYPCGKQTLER", "assay": "Factor Xa chromogenic enzyme assay (Spectrozyme Xa)", "format": "biochemical", "settings": "for Ki: inhibitor pre-incubated with human Factor Xa, tight binding equation, read-out: Ki for inhibition of Factor Xa", "protocol": "(§1) Assays were carried out at room temperature in 96-well microtiter plates. The color developed from the hydrolysis of peptide-nitroanilide substrates was monitored continuously at 405 nM on a Vmax machine (Molecular Devices). The concentration of Factor Xa was determined by active site titration. The concentrations of working solutions of the other proteases were determined spectrophotometrically using published extinction coefficients. The concentration of purified inhibitor was determined by quantitative amino acid analysis. […] In the case of human Factor Xa, the buffers also included 0.1% BSA; for S. aureus V8 protease the buffer was 50 mM NH4 HCo3. The substrates used were: Spectrozyme Xa (Factor Xa), S-2238 (thrombin), S-2356 (chymotrypsin), S-2366 (Factor XIa) Boc-AlaAla-Pro-Ala-pNA (elastase), Spectrozyme Pkal (kallikrein), Spectrozyme PL (plasmin), Spectrozyme UK (urokinase) Z-Phe-Leu-Glu-pNA (S. aureus V8 protease) and Spectrozyme tPA for tPA. Factor VIIa was assayed by measuring the release of the ^3 H-activation peptide from human Factor X. For kinetic analyses, assays were carried for up to 10 min. followed by estimation of the initial rate where less than 5% of the added substrate was utilized.\n(§2) Because the TAP-1 was pre-incubated with the human Factor Xa to establish equilibrium in the absence of substrate, a value for the intrinsic Ki irrespective of the mechanism was calculated (solid line) using the equation for tight binding inhibition described in the article by Morrison, J. F. in Biochem. Biophys. Acta 185,269 (1969). The effect on TAP-1 on various proteases also was tested."}, "[2]": {"target": "Factor VIIa (Homo sapiens, UniProt P08709)", "sequence (P08709 213-466 limits assumed)": "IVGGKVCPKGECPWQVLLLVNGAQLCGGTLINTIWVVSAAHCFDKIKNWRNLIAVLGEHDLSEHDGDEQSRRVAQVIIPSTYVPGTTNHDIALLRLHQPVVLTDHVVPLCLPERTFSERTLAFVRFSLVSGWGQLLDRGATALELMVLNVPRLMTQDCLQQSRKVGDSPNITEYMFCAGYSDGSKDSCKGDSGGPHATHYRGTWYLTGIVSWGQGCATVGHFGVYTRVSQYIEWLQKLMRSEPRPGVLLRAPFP", "sequence (P08709 61-212 partner limits assumed)": "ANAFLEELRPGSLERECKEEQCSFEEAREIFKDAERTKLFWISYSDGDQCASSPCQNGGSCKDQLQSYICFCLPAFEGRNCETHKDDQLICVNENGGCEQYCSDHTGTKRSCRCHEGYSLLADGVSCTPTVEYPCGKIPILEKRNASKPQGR", "sequence (P13726 33-295 partner)": "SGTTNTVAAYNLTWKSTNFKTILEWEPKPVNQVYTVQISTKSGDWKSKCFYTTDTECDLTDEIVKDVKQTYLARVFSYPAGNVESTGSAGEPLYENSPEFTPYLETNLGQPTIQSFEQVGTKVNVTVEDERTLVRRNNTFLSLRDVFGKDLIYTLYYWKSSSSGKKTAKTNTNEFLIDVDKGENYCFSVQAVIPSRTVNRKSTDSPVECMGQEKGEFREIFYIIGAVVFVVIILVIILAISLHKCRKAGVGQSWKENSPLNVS", "assay": "Factor VIIa assay (release of 3H-activation peptide from human Factor X)", "format": "biochemical", "settings": "300-fold molar excess of TAP-1 over protease", "protocol": "as §1, with “Factor VIIa was assayed by measuring the release of the ^3 H-activation peptide from human Factor X. For kinetic analyses, assays were carried for up to 10 min. followed by estimation of the initial rate where less than 5% of the added substrate was utilized.” left out\nas §2, with “Acta 185,269 (1969). The effect on TAP-1 on various proteases also was tested.” left out"}, "[3]": {"target": "T2, thrombin (Bos taurus, UniProt P00735)", "T2 construct": "responsible for the Factor Xa conversion of prothrombin to thrombin in vivo; purchased Calbiochem", "assay": "thrombin chromogenic enzyme assay (S-2238)", "format": "biochemical, bovine", "settings": "300-fold molar excess of TAP-1 over protease", "text": "(§3) Ornithodoros moubata ticks were obtained from South Africa through Antibody Associates, Inc. (Bedford, Tex.). Colorimetric substrates were purchased from Helena Labs, American Diagnostica, and Chemical Dynamics. Human Factor Xa was from Enzyme Research Laboratories. Human plasmin, urokinase, and bovine thrombin were from Calbiochem; bovine trypsin, chymotrypsin, and pancreatic elastase were from Worthington Enzymes, Inc. Plasma kallikrein, carboxypeptidase Y, S. aureus V8 protease and protease inhibitors were from Sigma. Two chain tPA was from American Diagnostica.\n(§4) Assays were carried out at room temperature in 96-well microtiter plates. […] The concentration of Factor Xa was determined by active site titration. The concentrations of working solutions of the other proteases were determined spectrophotometrically using published extinction coefficients. The concentration of purified inhibitor was determined by quantitative amino acid analysis. […]\nas §2, with “Acta 185,269 (1969). The effect on TAP-1 on various proteases also was tested.” left out"}, "[4]": {"target": "T3, chymotrypsin (Bos taurus, UniProt P00766)", "T3 construct": "purchased Worthington Enzymes, Inc", "assay": "chymotrypsin chromogenic enzyme assay (S-2356)", "format": "biochemical, bovine", "settings": "300-fold molar excess of TAP-1 over protease", "text": "as §3, §4\nas §2, with “Acta 185,269 (1969). The effect on TAP-1 on various proteases also was tested.” left out"}, "[5]": {"target": "T4, pancreatic elastase (Sus scrofa, UniProt P00772)", "T4 construct": "purchased Worthington Enzymes, Inc", "T4 sequence (P00772 27-266)": "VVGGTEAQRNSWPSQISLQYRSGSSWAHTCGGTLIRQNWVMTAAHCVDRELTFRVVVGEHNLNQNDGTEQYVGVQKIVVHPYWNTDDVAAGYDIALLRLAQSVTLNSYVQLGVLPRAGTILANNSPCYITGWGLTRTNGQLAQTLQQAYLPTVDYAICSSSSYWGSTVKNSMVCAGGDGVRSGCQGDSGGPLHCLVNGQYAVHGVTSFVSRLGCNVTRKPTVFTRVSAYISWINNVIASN", "assay": "elastase chromogenic enzyme assay (Boc-AlaAla-Pro-Ala-pNA)", "format": "biochemical", "settings": "300-fold molar excess of TAP-1 over protease", "text": "as §3, §4\nas §2, with “Acta 185,269 (1969). The effect on TAP-1 on various proteases also was tested.” left out"}, "[6]": {"target": "T5, trypsin (Bos taurus, UniProt P00760)", "T5 construct": "purchased Worthington Enzymes, Inc", "T5 sequence (P00760 24-246)": "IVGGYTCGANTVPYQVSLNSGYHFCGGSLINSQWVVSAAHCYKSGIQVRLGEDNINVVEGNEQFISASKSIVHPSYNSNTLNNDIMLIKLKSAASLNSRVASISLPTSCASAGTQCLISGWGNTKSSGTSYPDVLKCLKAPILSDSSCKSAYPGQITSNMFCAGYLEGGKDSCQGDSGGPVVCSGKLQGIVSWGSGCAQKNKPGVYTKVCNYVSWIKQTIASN", "assay": "trypsin chromogenic enzyme assay", "format": "biochemical, bovine", "settings": "300-fold molar excess of TAP-1 over protease", "text": "as §3, §4\nas §2, with “Acta 185,269 (1969). The effect on TAP-1 on various proteases also was tested.” left out"}, "[7]": {"target": "T6, Plasma kallikrein (Homo sapiens, UniProt P03952)", "T6 construct": "purchased Sigma", "T6 sequence (P03952 391-638 limits assumed, species assumed)": "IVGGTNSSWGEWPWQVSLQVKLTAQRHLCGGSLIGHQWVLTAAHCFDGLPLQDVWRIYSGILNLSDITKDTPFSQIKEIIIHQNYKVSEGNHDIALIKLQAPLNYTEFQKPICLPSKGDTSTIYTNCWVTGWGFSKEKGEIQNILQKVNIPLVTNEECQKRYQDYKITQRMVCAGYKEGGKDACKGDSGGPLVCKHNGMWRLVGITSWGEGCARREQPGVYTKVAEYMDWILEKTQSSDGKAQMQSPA", "T6 sequence (P03952 20-390 partner limits assumed, species assumed)": "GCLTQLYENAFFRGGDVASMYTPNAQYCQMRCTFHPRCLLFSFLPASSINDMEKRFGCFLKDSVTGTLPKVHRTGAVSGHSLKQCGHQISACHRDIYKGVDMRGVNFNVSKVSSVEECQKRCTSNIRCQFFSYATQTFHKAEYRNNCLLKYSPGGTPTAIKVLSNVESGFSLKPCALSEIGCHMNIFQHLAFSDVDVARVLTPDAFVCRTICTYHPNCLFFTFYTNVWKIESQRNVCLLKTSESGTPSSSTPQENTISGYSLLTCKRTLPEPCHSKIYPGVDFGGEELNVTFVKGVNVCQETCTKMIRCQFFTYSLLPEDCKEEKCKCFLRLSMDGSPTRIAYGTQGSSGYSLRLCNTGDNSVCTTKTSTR", "assay": "kallikrein chromogenic enzyme assay (Spectrozyme Pkal)", "format": "biochemical", "settings": "300-fold molar excess of TAP-1 over protease", "text": "as §3, §4\nas §2, with “Acta 185,269 (1969). The effect on TAP-1 on various proteases also was tested.” left out"}, "[8]": {"target": "T7, urokinase (Homo sapiens, UniProt P00749)", "T7 construct": "purchased Calbiochem", "assay": "urokinase chromogenic enzyme assay (Spectrozyme UK)", "format": "biochemical", "settings": "300-fold molar excess of TAP-1 over protease", "text": "as §3, §4\nas §2, with “Acta 185,269 (1969). The effect on TAP-1 on various proteases also was tested.” left out"}, "[9]": {"target": "T8, plasmin (Homo sapiens, UniProt P00747)", "T8 construct": "Human plasmin, urokinase, and bovine thrombin were from Calbiochem; purchased Calbiochem", "T8 sequence (P00747 581-810 limits assumed)": "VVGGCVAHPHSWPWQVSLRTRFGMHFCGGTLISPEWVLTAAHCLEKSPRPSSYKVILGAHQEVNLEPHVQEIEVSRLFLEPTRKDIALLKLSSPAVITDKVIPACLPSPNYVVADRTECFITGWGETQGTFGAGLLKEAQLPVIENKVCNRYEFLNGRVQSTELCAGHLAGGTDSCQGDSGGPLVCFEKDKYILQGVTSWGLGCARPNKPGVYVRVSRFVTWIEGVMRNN", "T8 sequence (P00747 97-580 partner limits assumed)": "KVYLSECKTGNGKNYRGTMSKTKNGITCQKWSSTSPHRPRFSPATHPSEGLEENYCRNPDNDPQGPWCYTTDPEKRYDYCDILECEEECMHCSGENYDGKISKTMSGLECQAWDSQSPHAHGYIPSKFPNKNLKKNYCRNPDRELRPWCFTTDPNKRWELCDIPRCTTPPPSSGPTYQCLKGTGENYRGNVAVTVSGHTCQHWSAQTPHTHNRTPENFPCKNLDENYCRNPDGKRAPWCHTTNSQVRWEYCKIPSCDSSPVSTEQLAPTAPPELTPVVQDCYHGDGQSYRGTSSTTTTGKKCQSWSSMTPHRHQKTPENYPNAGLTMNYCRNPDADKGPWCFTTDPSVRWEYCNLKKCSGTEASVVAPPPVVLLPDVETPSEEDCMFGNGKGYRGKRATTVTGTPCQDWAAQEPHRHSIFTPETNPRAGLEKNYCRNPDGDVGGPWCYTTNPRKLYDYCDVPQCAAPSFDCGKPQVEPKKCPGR", "assay": "plasmin chromogenic enzyme assay (Spectrozyme PL)", "format": "biochemical", "settings": "300-fold molar excess of TAP-1 over protease", "text": "as §3, §4\nas §2, with “Acta 185,269 (1969). The effect on TAP-1 on various proteases also was tested.” left out"}, "[10]": {"target": "S. aureus V8 protease (Staphylococcus aureus, UniProt P0C1U8)", "sequence (P0C1U8 69-336)": "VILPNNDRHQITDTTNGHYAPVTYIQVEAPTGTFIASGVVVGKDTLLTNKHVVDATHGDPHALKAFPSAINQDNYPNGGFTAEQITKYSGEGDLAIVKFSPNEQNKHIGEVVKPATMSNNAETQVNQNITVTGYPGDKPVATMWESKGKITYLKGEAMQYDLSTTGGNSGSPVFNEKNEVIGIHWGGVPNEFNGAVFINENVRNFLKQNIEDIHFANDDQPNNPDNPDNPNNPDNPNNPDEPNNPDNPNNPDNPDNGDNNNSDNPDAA", "settings": "300-fold molar excess of TAP-1 over protease", "text": "as §3, §4\nas §2, with “Acta 185,269 (1969). The effect on TAP-1 on various proteases also was tested.” left out"}, "[11]": {"system": "Normal Human Plasma", "assay": "Prothrombin Time, plasma based clotting assay", "format": "biochemical"}, "[12]": {"system": "Normal Human Plasma", "assay": "Activated Partial Thromboplastin Time, plasma based clotting assay", "format": "biochemical"}, "[13]": {"system": "Normal Human Plasma", "assay": "Modified Stypven Time, plasma based clotting assay", "format": "biochemical"}, "[14]": {"system": "thromboplastin-induced clot formation", "assay": "in vivo model of thromboplastin-induced clot formation (jugular vein)", "set-up": "species or system rabbit", "settings": "rabbits, untreated 29.2±3.4%", "protocol": "An in vivo model of thromboplastin-induced clot formation similar to Van Ryn-McKenna, et al., (1989) Thrombosis and Haemostasis 61:7-9 was used to determine the efficacy of the Factor Xa inhibitor recombinant TAP-1. Rabbits were pretreated with an infusion of recombinant TAP-1 for 60 minutes, at which time a segment of the jugular vein was isolated and occluded. Thromboplastin and whole blood withdrawn from the carotid artery were injected into the segment in order to induce clot formation. The jugular vein remained occluded for 30 minutes before the clot was removed and quantitated."}, "[15]": {"system": "activated partial thromboplastin time", "assay": "activated partial thromboplastin time in infused rabbits", "format": "in vivo, rabbit", "settings": "i.v. infusions of 7, 37 and 64 μg/kg/min"}, "[16]": {"system": "prothrombin time", "assay": "prothrombin time in infused rabbits", "format": "in vivo, rabbit", "settings": "i.v. infusions of 7, 37 and 64 μg/kg/min"}, "[17]": {"settings": "28.9 pMol TAP-1, Normal Human Plasma"}, "[18]": {"settings": "57.8 pMol TAP-1, Normal Human Plasma"}, "[19]": {"settings": "115 pMol TAP-1, Normal Human Plasma"}}}
{"substance": "TAP-1: 60 amino acid Factor Xa inhibitor protein purified from Ornithodoros moubata tick extracts (YNRLCIKPRDWIDECDSNEGGERAYFRNGKGGCDSFWICPEDHTGADYYSSYRDCFNACI; UniProt P17726 1-60, looked up)", "values": [{"measurement": "effect of Ca++ on the ability to inhibit Factor Xa", "setting": "[1]; inclusion of 1-5 mM Ca++", "result": "no effect"}, {"measurement": "Ki", "setting": "[1]", "result": 580, "unit": "pM"}, {"measurement": "inhibition of Factor VIIa", "setting": "[2]", "result": "no inhibition"}, {"measurement": "inhibition of thrombin", "setting": "[3]", "result": "no inhibition"}, {"measurement": "inhibition of chymotrypsin", "setting": "[4]", "result": "no inhibition"}, {"measurement": "inhibition of elastase", "setting": "[5]", "result": "no inhibition"}, {"measurement": "inhibition of trypsin", "setting": "[6]", "result": "no inhibition"}, {"measurement": "inhibition of kallikrein", "setting": "[7]", "result": "no inhibition"}, {"measurement": "inhibition of urokinase", "setting": "[8]", "result": "no inhibition"}, {"measurement": "inhibition of plasmin", "setting": "[9]", "result": "no inhibition"}, {"measurement": "inhibition of S. aureus V8 protease", "setting": "[10]", "result": "no inhibition"}, {"measurement": "Clotting Time, Prothrombin Time", "setting": "[11]; 1.15 pMol TAP-1, Normal Human Plasma", "result": 15.1, "unit": "s"}, {"measurement": "Clotting Time, Prothrombin Time", "setting": "[11]; [17]", "result": 28.9, "unit": "s"}, {"measurement": "Clotting Time, Prothrombin Time", "setting": "[11]; [18]", "result": 31.2, "unit": "s"}, {"measurement": "Clotting Time, Prothrombin Time", "setting": "[11]; [19]", "result": 48.7, "unit": "s"}, {"measurement": "Clotting Time, Activated Partial Thromboplastin Time", "setting": "[12]; [17]", "result": 45.2, "unit": "s"}, {"measurement": "Clotting Time, Activated Partial Thromboplastin Time", "setting": "[12]; [18]", "result": 57.7, "unit": "s"}, {"measurement": "Clotting Time, Activated Partial Thromboplastin Time", "setting": "[12]; [19]", "result": 92.2, "unit": "s"}, {"measurement": "Clotting Time, Modified Stypven Time", "setting": "[13]; [17]", "result": 17.7, "unit": "s"}, {"measurement": "Clotting Time, Modified Stypven Time", "setting": "[13]; [18]", "result": 31.2, "unit": "s"}, {"measurement": "Clotting Time, Modified Stypven Time", "setting": "[13]; [19]", "result": 65.1, "unit": "s"}]}
{"substance": "recombinant TAP-1: TAP-1 expressed from a synthetic gene in S. cerevisiae and purified from broth (YNRLCIKPRDWIDECDSNEGGERAYFRNGKGGCDSFWICPEDHTGADYYSSYRDCFNACI; UniProt P17726 1-60, looked up)", "values": [{"measurement": "Ki", "setting": "[1]", "result": 200, "unit": "pM"}, {"measurement": "Clot formation (normalized clot value)", "setting": "[14]; i.v. infusion 7 μg/kg/min for 60 minutes", "result": "27.0±7.5", "unit": "%"}, {"measurement": "Clot formation (normalized clot value)", "setting": "[14]; i.v. infusion 37 μg/kg/min for 60 minutes", "result": "7.9±2.0", "unit": "%"}, {"measurement": "Clot formation (normalized clot value)", "setting": "[14]; i.v. infusion 64 μg/kg/min for 60 minutes", "result": "1.9±1.0", "unit": "%"}, {"measurement": "effect on activated partial thromboplastin time", "setting": "[15]", "result": "did not significantly increase"}, {"measurement": "effect on prothrombin time", "setting": "[16]", "result": "did not significantly increase"}]}
